Test results as given in patent US20020128214A1, “C-glucosyl ether lipids” (priority 2000, published 2002).

Assays:
[1] = system: MCF-7 (breast); test: Anti-proliferation, cell count after 48 h (Coulter Counter), MCF-7; assay type: cell-based; details: treated 48 hours, extrapolated from FIGS. 1-9
Experimental: (§1) In this study, the anti-proliferative effects of each of four glucosyl ether lipid compounds were assessed on a panel of epithelial cancer cell lines. Two Cglucosyl ether lipids in accordance with the invention (compounds 4 and 17) were evaluated. In addition, a 2′-deoxy C-glucosyl ether lipid (compound 2) and a 2′-amino-2′-deoxy O-glucosyl ether lipid (compound 3), were evaluated. Thirty mM stock concentration of each of the four compounds were prepared in ethanol.
(§2) The experimental procedure used is detailed in Lu, X. and Arthur, G., Cancer Res., 52:2806-2812 (1992), the pertinent parts of which are incorporated by reference. Briefly, the epithelial cancer cell lines, namely SK-N-MC and SK-N-SH (neuroblastoma); DU145 (prostate); A498 (kidney); MDA-MB-468, MDA-MB-231, HS578t, MCF-7 and BT549 (breast), were subcultured into 24-well plates and allowed to grow to exponential phase. The medium was changed and replaced with one containing the glucosyl ether lipid compounds ([…]) in 10% FBS-supplemented medium. The cell numbers in representative wells were determined at the time of addition of the compounds. After 48 hours, the cells were detached with trypsin and the numbers were determined with a Coulter Counter. The increase in cell numbers were expressed as a percentage relative to those in wells without any drug (control).
(§3) See Erukulla, et al., J. Med. Chem., 39:1545-1548 (1996), the pertinent portions of which are incorporated herein by reference. Table 1 summarizes the comparative test results for 17, 3, 4, and the 2-deoxy analog of 4, (3S)-3-O-methyl-4-O-hexadecyl-2′-deoxy-β-D-glucopyranosylbutane (compound 2), which had been described in our earlier paper (Yang et al., Org. Lett., 1:2149-2151 (1999)). The method utilized was the same as that described in Example 2 above, and the Gl50 values were extrapolated from the results shown in FIGS. 1-9. In all nine examples, the close similarity in antiproliferative activity is striking.

[2] = system: MDA-MB-468 (breast); test: Anti-proliferation, cell count after 48 h (Coulter Counter), MDA-MB-468; assay type: cell-based; details: treated 48 hours, extrapolated from FIGS. 1-9
Experimental: as §1, §2, §3

[3] = system: MDA-MB-231 (breast); test: Anti-proliferation, cell count after 48 h (Coulter Counter), MDA-MB-231; assay type: cell-based; details: treated 48 hours, extrapolated from FIGS. 1-9
Experimental: as §1, §2, §3

[4] = system: HS578T (breast); test: Anti-proliferation, cell count after 48 h (Coulter Counter), HS578T; assay type: cell-based; details: treated 48 hours, extrapolated from FIGS. 1-9
Experimental: as §1, §2, §3

[5] = system: BT549 (breast); test: Anti-proliferation, cell count after 48 h (Coulter Counter), BT549; assay type: cell-based; details: treated 48 hours, extrapolated from FIGS. 1-9
Experimental: as §1, §2, §3

[6] = system: A498 (kidney); test: Anti-proliferation, cell count after 48 h (Coulter Counter), A498; assay type: cell-based; details: treated 48 hours, extrapolated from FIGS. 1-9
Experimental: as §1, §2, §3

[7] = system: SK-N-SH (neuroblastoma); test: Anti-proliferation, cell count after 48 h (Coulter Counter), SK-N-SH; assay type: cell-based; details: neuronal, treated 48 hours, extrapolated from FIGS. 1-9
Experimental: as §1, §2, §3

[8] = system: SK-N-MC (neuroblastoma); test: Anti-proliferation, cell count after 48 h (Coulter Counter), SK-N-MC; assay type: cell-based; details: neuronal, treated 48 hours, extrapolated from FIGS. 1-9
Experimental: as §1, §2, §3

[9] = system: DU145 (prostate); test: Anti-proliferation, cell count after 48 h (Coulter Counter), DU145; assay type: cell-based; details: treated 48 hours, extrapolated from FIGS. 1-9
Experimental: as §1, §2, §3

[10] = Storage stability; assay type: physicochemical; details: stored at 0° C.
Experimental: Deprotection and reduction of alkene 15 using H2 and 10% Pd/C afforded β-C-glycoside 16 in 85% yield. Of the several methods attempted for cleavage of the silyl group (e.g., Bu4NF, formic acid, acidic ionic exchange resin, and BF3, Et2O conditions), only BF3,Et2O in CH3CN gave a clean reaction (see King, et al., Tetrahedron Lett., 36:4563 (1995), the pertinent portions of which are incorporated herein by reference). The N-acetyl group was cleaved by using 2 N KOH/EtOH at reflux at 120° C. to afford the final product 4. [drawing 8]

[11] = system: panel of epithelial cancer cell lines; test: Cancer cell proliferation study, whole panel (FIGS. 1-9); assay type: cell-based; details: nine cancer cell lines, 48 hours, 10% FBS-supplemented medium
Experimental: as §1, §2

[12] = comparison with compound 1; cited from earlier work

| SMILES | GI50 [1] [µM] | GI50 [2] [µM] | GI50 [3] [µM] | GI50 [4] [µM] | GI50 [5] [µM] | GI50 [6] [µM] | GI50 [7] [µM] | GI50 [8] [µM] | GI50 [9] [µM] | storage time without decomposition [10] | anti-proliferative efficacy (increase in cell numbers relative to control) [11] | antiproliferative activity of C-glycoside relative to O-glycoside compound 1 [12] |
| --- | --- | --- | --- | --- | --- | --- | --- | --- | --- | --- | --- | --- |
| CCCCCCCCCCCCCCCCOC[C@H](CC[C@@H]1O[C@H](CO)[C@@H](O)[C@H](O)[C@H]1N)OC [Compound 4, (3S)-3-O-methyl-4-O-hexadecyl-2′-amino-2′-deoxy-β-Dlucopyranosylbutane] | 8.1 | 9 | 9.1 | 5.1 | 8.9 | 8.5 | 4.1 | 4.1 | 7.9 | more than one month without any decomposition |  |  |
| CCCCCCCCCCCCCCCCOC[C@H](CC[C@@H]1O[C@H](CO)[C@@H](O)[C@H](O)[C@H]1NC(C)=O)OC [Compound 17, (3S)-3-O-Methyl-4-O-hexadecyl 2′-acetamido-2′-deoxy-β-D-glucopyranosylbutane] | 25 | 34.4 | 40 | 21 | 28.5 | > 15 | > 15 | > 15 | > 15 |  | generally less efficacious than the other two glycoside ether lipids evaluated |  |
| CCCCCCCCCCCCCCCCOC[C@H](CC[C@H]1C[C@@H](O)[C@H](O)[C@@H](CO)O1)OC [Compound 2, (3S)-3-O-methyl-4-O-hexadecyl-2′-deoxy-β-D-glucopyranosylbutane, reference compound] | > 15 | 11.4 | > 15 | > 15 | > 15 | > 15 | > 15 | > 15 | > 15 |  | generally less efficacious than the other two glycoside ether lipids evaluated | several fold weaker activity |
